# Source: US20200069775A1, “BRAIN OSTEOCALCIN RECEPTOR AND COGNITIVE DISORDERS” (The Trustees of Columbia University in the City of New York, priority 2017, published 2020)
# What was measured:
# [1] = system: Osteocalcin−/− embryos and adult offspring of Osteocalcin−/− mothers; assay: Osteocalcin injections in pregnant Osteocalcin−/− mothers, analysis of offspring; format: in vivo, mouse
# Description: Osteocalcin−/−, Gprc6a−/−, Osteocalcin-mCherry, and Osteocalcin foxed mice have been previously described (Ducy et al., 1996, Nature 382:448-452; Oury et al., 2011, Cell 144:796-809). Mouse genotypes were determined by PCR. For all experiments, controls were littermate female WT, Cre-expressing, or flox/flox. All mice were maintained on a pure 129-Sv genetic background except for the inducible deletion Osteocalcin model (mix background: 25% C57/BL6 and 75% 129sv). For inducible gene deletion mice, tamoxifen was prepared in corn oil and injected intraperitoneally (IP) (1 mg/20g of body weight) over one week. For osteocalcin delivery to pregnant mice, IP injections (240 ng/day) were performed as soon as a plug was present daily until delivery (E0.5-E18.5). For osteocalcin or leptin infusion in adult Osteocalcin−/− or ob/ob mice, pumps (Alzet micro-osmotic pump, Model 1002) delivering osteocalcin (300 ng/hr), leptin (50 ng/hr), or vehicle were surgically installed subcutaneously in the backs of 3-month old mice. For the postnatal rescue of cognitive functions in Osteocalcin−/− mice, osteocalcin (10 ng/hour) or vehicle were delivered intrasubventricularly (icv) as previously described (Ducy et al., 2000, Cell 100:197-207). Leptin and osteocalcin content in sera and tissues were determined by ELISA.
# Cresyl violet staining to visualize brain morphology was carried out by incubating 20 μm cryosections defatted with 1:1 chloroform:ethanol in cresyl violet acetate (1 g/L) overnight. The stain was differentiated using ethanol and xylene and mounted using DPX mounting medium for histology (Sigma).
# To assess apoptosis in WT and Osteocalcin−/− brains, 20 μm cryostat sections were processed using theAPOPTAG® Fluorescein Direct In Situ Apoptosis Detection Kit (Millipore) according to manufacturer's protocol. Images were obtained using Leica DM 4000B, and Image J was used to quantify cell number and intensity of staining.
# For western blotting, frozen hippocampi from E18.5 embryos were lysed and homogenized in 250 μl tissue lysis buffer (25 mM Tris HCl 7.5; 100 mM NaF; 10 mM Na4P2O7; 10 mmM EDTA; 1% NP 40). Samples were pooled together in threes by genotype to reduce variability. Proteins were transferred to nitrocellulose membranes and blocked with TBST-5% milk prior to overnight incubation with primary antibody in TBST-5% BSA. HRP-coupled secondary antibodies and ECL were used to visualize the signal.
# To further evaluate the importance of maternal osteocalcin for the acquisition of spatial learning and memory in adult offspring, pregnant Osteocalcin^−/− mothers from E0.5 to E18.5 were treated with injections, once a day, of osteocalcin (240 ng/day). Osteocalcin was never injected in these females or their pups after delivery. […] Likewise, the number of apoptotic cells was reduced and the number of NeuN positive cells was increased compared to Osteocalcin^−/− embryos originating from Osteocalcin^−/− mothers that were not injected (FIG. 7I-J).
# [2] = Ex vivo dual perfusion of the mouse placenta (maternal-fetal transport); format: in vitro ADME
# Description: Maternal-fetal transport of osteocalcin was monitored using ex vivo dual perfusion of the mouse placenta (Goeden & Bonnin, 2013, Nature Protocols 8:66-74). Osteocalcin (300 ng/ml) was injected on the maternal side through the uterine artery in placentas obtained from WT mice at E14.5, E15.5, and E18.5 of pregnancy (n=3 independent perfusions per age). Osteocalcin transport through the placenta was analyzed by measuring the concentration of osteocalcin present in fetal eluates obtained through the umbilical vein, each time point (1-9) corresponding to a 10 minute collection period (at 5 μl/min). Collection time points (from 10 to 30 min of perfusion) were obtained during materal fluid infusion; time points 4-6 (from 30 to 60 min of perfusion) were obtained during osteocalcin infusion into the maternal uterine artery, whereas for time points 7-9 (from 60 to 90 min of perfusion, respectively) the maternal uterine artery was infused with maternal fluid alone.
# Any influence of maternal osteocalcin on fetal brain development requires that this hormone cross the placenta. This was investigated through an ex vivo dual perfusion system that monitors the transport of substances across the mouse placenta (Bonnin et al., 2011, Nature 472:347-350; Goeden and Bonnin, […], Nature Protocols 8:66-74).
# [3] = system: mouse primary hindbrain neurons (MPHN); assay: Calcium flux in mouse primary hindbrain neurons; format: cell-based
# Description: For calcium imaging, primary hindbrain neurons seeded on 12 mm coverslips were allowed the appropriate time to form structural networks. These cultures were washed with HBSS and loaded with 2.5 μM FURA-2, AM calcium indicator for 45 minutes at room temperature, according to the manufacturer's protocol. Cells were then washed to remove excess indicator and incubated for 30 minutes to allow internalized esters to become de-esterified. 30 ng/ml of osteocalcin was prepared with the control buffer of 1× HBBS supplemented with 10 mM HEPES buffer and 2 mM CaCl2. Using a Zeiss microscope with a perfusion system, coverslips were first perfused with control and osteocalcin. After each stimulation, cells were depolarized with 50 mM KCl to determine the percentage of live cells being imaged. All treatments were recorded using two-photon laser scanning microscopy by Prairie Technologies and analyzed by Z axis profile plotting using ImageJ.
# To determine if osteocalcin acts directly on neurons to modulate neurotransmitter synthesis, several types of assays were performed. First, brainstem and midbrain explants from WT and Gprc6a^−/− mice were generated. […] Third, to further confirm that osteocalcin signals in neurons of the hindbrain, calcium flux in MPHN treated with undercarboxylated or carboxylated osteocalcin (FIG. 3F) was measured.
# [4] = Osteocalcin−/− embryos, injected vs not injected Osteocalcin−/− mothers
# [5] = mothers injected 240 ng/day once a day E0.5 to E18.5
substance,measurement,setting,value
"osteocalcin: Recombinant osteocalcin bacterially produced, cleaved from the GST subunit; completely undercarboxylated at all three sites; full-length mouse osteocalcin (YLGASVPSPDPLEPTREQCELNPACDELSDQYGLKTAYKRIYGITI)",Caspase-3 cleaved protein level in the hippocampus (Western blot),"[1]; Osteocalcin−/− E18.5 embryos, injected vs not injected mothers",decrease in Caspase-3 cleaved protein level
same,number of NeuN positive cells,[1]; [4],increased
same,number of apoptotic cells,[1]; [4],reduced
same,number of apoptotic cells,"[1]; Osteocalcin−/− embryos, injected vs not injected Osteocalcin−/− mothers, listed as Uncarboxylated osteocalcin",prevent this neuronal apoptosis
same,thickness defect in the CA3 and CA4 regions of the hippocampus,[1]; adult Osteocalcin−/− originating from Osteocalcin−/− mothers,rescue of the thickness defect
same,cerebral ventricle enlargement (cresyl violet),"[1]; brains of E18.5 Osteocalcin−/− embryos, injected mothers",rescue of the cerebral ventricle enlargement
same,anxiety or depression phenotypes of Osteocalcin−/− offspring,[1]; [5],did not have any beneficial effect
same,deficit in learning and memory of Osteocalcin−/− offspring,[1]; [5],rescued over two third of their deficit
same,transport across the placenta,"[2]; day 14.5 of gestation, 300 ng/ml through uterine artery",begins to cross the placenta
same,transplacental transfer to the fetal circulation,[2]; day 15.5 or 18.5 of gestation,larger transplacental transfer
same,calcium fluxes,[3],induced changes in calcium fluxes
